According to EP1981504B1, “THIADIAZOLE DERIVATIVES FOR THE TREATMENT OF NEURO DEGENERATIVE DISEASES” (NV reMYND, priority 2006, dated 2007):
Converted amounts (≈) assume the structure as drawn.

Tested on: M17-SYNwt cells
Experiment: α-synuclein cytotoxicity assay (LDH leakage from paraquat-treated α-synuclein over-expressing neuroblastoma cells)
Type: cell-based, human
Details: paraquat 32 mM, 40 hours, LDH release; for EC50: Homo sapiens, Neuroblastoma cell, 10 point curves in duplicate; for %I: percent inhibition of synuclein cytotoxicity at most effective concentration of test compound, relative to untreated paraquat cells
How it was run: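 M17 neuroblastoma cells over-expressing wild-type α-synuclein were challenged with paraquat, and cytotoxicity was read as LDH release. Protection was expressed as percent reduction of paraquat-induced LDH release relative to untreated paraquat cells and control cells. Actives were retested in 10-point duplicate dose responses.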

For `Cc1ccc(Cc2nsc(N3CCN(C(=O)c4ccc(Cl)cc4)CC3)n2)cc1` [Compound 155, 1-(4-chlorobenzoyl)-4-[3-(4-methylbenzyl)-1,2,4-thiadiazol-5-yl]piperabine], which EC50 is on record?
The EC50 was 1.64 µg/mL (≈ 3.97 µM).

What about the “%I” value of the same molecule?
Its value is 76%.

For `Cc1ccc(Cc2nsc(N3CCN(C(=O)c4cccc(F)c4)C(C)C3)n2)cc1` (centres unmarked) [Compound 156, 1-(3-fluorobenzoyl)-4-[3-(4-methylbenzyl)-1,2,4-thiadiazol-5-yl]-2-methylpiperazine], which EC50 is on record?
The EC50 was 1.67 µg/mL (≈ 4.07 µM).

And the “%I” value?
Its value is 86%.

With `O=C(c1cccc(F)c1)N1CCN(c2nc(Cc3ccc(Cl)cc3)ns2)CC1` [Compound 157, 1-(3-fluorobenzoyl)-4-[3-(4-chlorobenzyl)-1,2,4-thiadiazol-5-yl]piperazine] as the molecule, how does the EC50 read?
Its EC50 is 1.7 µg/mL (≈ 4.08 µM).

What about the “%I” value of the same molecule?
Its value is 70%.

`Cc1ccc(Cc2nsc(N3CCN(C(=O)c4ccccc4)CC3)n2)cc1` [Compound 158, 1-benzoyl-4-[3-(4-methylbenzyl)-1,2,4-thiadiazol-5-yl]piperazine] was tested. Which EC50 did it give?
The EC50 was 2.1 µg/mL (≈ 5.55 µM).

And the “%I” value?
The value was 57%.

`O=C(c1ccccc1F)N1CCN(c2nc(Cc3ccc(Cl)cc3)ns2)CC1` [Compound 159, 1-(2-fluorobenzoyl)-4-[3-(4-chlorobenzyl)-1,2,4-thiadiazol-5-yl]piperazine] was tested. Which EC50 did it give?
Its EC50 is 2.85 µg/mL (≈ 6.84 µM).

What about the “%I” value of the same molecule?
The value was 48%.

How did the EC50 turn out when `Cc1ccc(Cc2nsc(N3CCN(C(=O)c4ccc(F)cc4)CC3)n2)cc1` [Compound 160, 1-(4-fluorobenzoyl)-4-[3-(4-methylbenzyl)-1,2,4-thiadiazol-5-yl]piperazine] was run?
The EC50 was 2.87 µg/mL (≈ 7.24 µM).

What about the “%I” value of the same molecule?
The value was 88%.

Which results are given for `Cc1ccc(Cc2nsc(N3CCN(C(=O)c4ccc5c(c4)OCO5)C(C)C3)n2)cc1` (centres unmarked) [Compound 161, 1-(1,3-benzodioxol-5-ylcarbonyl)-4-[3-(4-methylbenzyl)-1,2,4-thiadiazol-5-yl]-2-methyl+B176piperazine]?
EC50: 3.36 µg/mL (≈ 7.7 µM); %I: 101%

What does the source list for `Cc1ccc(Cc2nsc(N3CCN(C(=O)c4cccc(F)c4)CC3)n2)cc1` [Compound 162, 1-(3-flurorbenzoyl)-4-[3-(4-methylbenzyl)-1,2,4-thiadiazol-5-yl]piperazine]?
EC50: 3.4 µg/mL (≈ 8.58 µM); %I: 101%

Which results are given for `O=C(c1ccc(F)cc1)N1CCN(c2nc(Cc3ccccc3)ns2)CC1` [Compound 163, 1-(4-fluorobenzoyl)-4-[3-benzyl-1,2,4-thiadiazol-5-yl]piperazine]?
EC50: 3.61 µg/mL (≈ 9.44 µM); %I: 67%

What does the source list for `Cc1ccc(Cc2nsc(N3CCN(C(=O)c4ccc(Br)cc4)CC3)n2)cc1` [Compound 164, 1-(4-bromobenzoyl)-4-[3-(4-methylbenzyl)-1,2,4-thiadiazol-5-yl]piperazine]?
EC50: 3.86 µg/mL (≈ 8.44 µM); %I: 60%

With `CCc1ccc(C(=O)N2CCN(c3nc(Cc4ccc(Cl)cc4)ns3)CC2)cc1` [Compound 165, 1-(4-ethylbenzoyl)-4-[3-(4-chlorobenzyl)-1,2,4-thiadiazol-5-yl]piperazine] as the molecule, how does the “%I” value read?
The value was 133%.

`CC1CN(c2nc(Cc3ccc(F)cc3)ns2)CCN1C(=O)c1ccccc1Cl` (centres unmarked) [Compound 166, 1-(2-chlorobenzoyl)-4-[3-(4-fluorobenzyl)-1,2,4-thiadiazol-5-yl]-2-methylpiperazine] was tested. Which “%I” value did it give?
The value was 123%.

With `CC1CN(c2nc(Cc3ccc(Cl)cc3)ns2)CCN1C(=O)c1ccccc1F` (centres unmarked) [Compound 167, 1-(2-fluorobenzoyl)-4-[3-(4-chlorobenzyl)-1,2,4-thiadiazol-5-yl]-2-methylpiperazine] as the molecule, how does the “%I” value read?
The value was 117%.

`COc1cccc(Cc2nsc(N3CCN(C(=O)c4ccc(C(F)(F)F)cc4)C(C)C3)n2)c1` (centres unmarked) [Compound 168, 1-(4-trifluoromethylbenzoyl)-4-[3-(3-methoxybenzyl)-1,2,4-thiadiazol-5-yl]-2-methylpiperazine] was tested. Which “%I” value did it give?
Its value is 91%.

Which “%I” value does the source give for `Cc1ccc(Cc2nsc(N3CCN(C(=O)c4ccccc4)C(C)C3)n2)cc1` (centres unmarked) [Compound 169, 1-benzoyl-4-[3-(4-methylbenzyl)-1,2,4-thiadiazol-5-yl]-2-methylpiperazine] here?
Its value is 91%.

`COc1cccc(Cc2nsc(N3CCN(C(=O)c4ccc(Br)cc4)C(C)C3)n2)c1` (centres unmarked) [Compound 170, 1-(4-bromobenzoyl)-4-[3-(3-methoxybenzyl)-1,2,4-thiadiazol-5-yl]-2-methylpiperazine] was tested. Which “%I” value did it give?
Its value is 89%.

For `Cc1ccc(Cc2nsc(N3CCN(C(=O)c4ccc(C(F)(F)F)cc4)CC3)n2)cc1` [Compound 171, 1-(4-trifluoromethylbenzoyl)-4-[3-(4-methylbenzyl)-1,2,4-thiadiazol-5-yl]piperazine], which “%I” value is on record?
The value was 86%.

With `Cc1ccc(C(=O)N2CCN(c3nc(Cc4ccc(F)cc4)ns3)CC2C)cc1[N+](=O)[O-]` (centres unmarked) [Compound 172, 1-(3-nitro-4-methylbenzoyl)-4-[3-(4-fluorobenzyl)-1,2,4-thiadiazol-5-yl]-2-methylpiperazine] as the molecule, how does the “%I” value read?
The value was 86%.

How did the “%I” value turn out when `COc1cccc(Cc2nsc(N3CCN(C(=O)c4ccccc4)C(C)C3)n2)c1` (centres unmarked) [Compound 173, 1-benzoyl-4-[3-(3-methoxybenzyl)-1,2,4-thiadiazol-5-yl]-2-methylpiperazine] was run?
Its value is 85%.

With `COc1cccc(Cc2nsc(N3CCN(C(=O)c4ccc(Cl)cc4)C(C)C3)n2)c1` (centres unmarked) [Compound 174, 1-(4-chlorobenzoyl)-4-[3-(3-methoxybenzyl)-1,2,4-thiadiazol-5-yl]-2-methylpiperazine] as the molecule, how does the “%I” value read?
Its value is 83%.

`Cc1ccc(Cc2nsc(N3CCN(C(=O)c4ccccc4F)CC3)n2)cc1` [Compound 175, 1-(2-fluorobenzoyl)-4-[3-(4-methylbenzyl)-1,2,4-thiadiazol-5-yl]piperazine] was tested. Which “%I” value did it give?
Its value is 78%.

`CCCCCCc1ccc(C(=O)N2CCN(c3nc(Cc4ccc(C)cc4)ns3)CC2)cc1` [Compound 176, 1-(4-hexylbenzoyl)-4-[3-(4-methylbenzyl)-1,2,4-thiadiazol-5-yl]piperazine] was tested. Which “%I” value did it give?
Its value is 77%.

How did the “%I” value turn out when `CC1CN(c2nc(Cc3ccc(F)cc3)ns2)CCN1C(=O)c1ccc([N+](=O)[O-])cc1Cl` (centres unmarked) [Compound 177, 1-(2-chloro-4-nitrobenzoyl)-4-[3-(4-fluorobenzyl)-1,2,4-thiadiazol-5-yl]-2-methylpiperazine] was run?
The value was 77%.

With `CC1CN(c2nc(Cc3ccc(F)cc3)ns2)CCN1C(=O)c1ccc2c(c1)OCO2` (centres unmarked) [Compound 178, 1-(1,3-benzodioxol-5-ylcarbonyl)-4-[3-(4-fluorobenzyl)-1,2,4-thiadiazol-5-yl]-2-methylpiperazine] as the molecule, how does the “%I” value read?
The value was 68%.

For `CC1CN(c2nc(Cc3ccc(F)cc3)ns2)CCN1C(=O)c1cccc(F)c1` (centres unmarked) [Compound 179, 1-(3-fluorobenzoyl)-4-[3-(4-fluorobenzyl)-1,2,4-thiadiazol-5-yl]-2-methylpiperazine], which “%I” value is on record?
Its value is 68%.

`CC(C)(C)c1ccc(C(=O)N2CCN(c3nc(Cc4ccc(F)cc4)ns3)CC2)cc1` [Compound 180, 1-(4-tert-butylbenzoyl)-4-[3-(4-fluorobenzyl)-1,2,4-thiadiazol-5-yl]piperazine] was tested. Which “%I” value did it give?
The value was 62%.

For `O=C(c1ccccc1)N1CCN(c2nc(Cc3ccc(F)cc3)ns2)CC1` [Compound 181, 1-benzoyl-4-[3-(4-fluorobenzyl)-1,2,4-thiadiazol-5-yl]piperazine], which “%I” value is on record?
The value was 60%.

Which “%I” value does the source give for `CCCCc1ccc(C(=O)N2CCN(c3nc(Cc4ccc(C)cc4)ns3)CC2)cc1` [Compound 182, 1-(4-butylbenzoyl)-4-[3-(4-methylbenzyl)-1,2,4-thiadiazol-5-yl]piperazine] here?
Its value is 57%.

With `Cc1ccc(Cc2nsc(N3CCN(C(=O)c4ccc(C(C)(C)C)cc4)CC3)n2)cc1` [Compound 183, 1-(4-tert-butylbenzoyl)-4-[3-(4-methylbenzyl)-1,2,4-thiadiazol-5-yl]piperazine] as the molecule, how does the “%I” value read?
The value was 52%.

Which “%I” value does the source give for `CC1CN(c2nc(Cc3ccc(F)cc3)ns2)CCN1C(=O)c1ccc([N+](=O)[O-])cc1` (centres unmarked) [Compound 184, 1-(4-nitrobenzoyl)-4-[3-(4-fluorobenzyl)-1,2,4-thiadiazol-5-yl]-2-methylpiperazine] here?
Its value is 52%.

How did the EC50 turn out when `Cc1ccccc1N1CCN(c2nc(Cc3ccc(F)cc3)ns2)CC1` [Compound 185, 1-(2-methylphenyl)-4-[3-(4-fluorobenzyl)-1,2,4-thiadiazol-5-yl]piperazine] was run?
Its EC50 is 0.38 µg/mL (≈ 1.03 µM).

What about the “%I” value of the same molecule?
Its value is 114%.

Which EC50 does the source give for `CCOc1ccccc1N1CCN(c2nc(Cc3ccc(F)cc3)ns2)CC1` [Compound 186, 1-(2-ethoxyphenyl)-4-[3-(4-fluorobenzyl)-1,2,4-thiadiazol-5-yl]piperazine] here?
The EC50 was 2.05 µg/mL (≈ 5.14 µM).

What about the “%I” value of the same molecule?
Its value is 94%.

How did the EC50 turn out when `Fc1ccc(Cc2nsc(N3CCN(c4ccccc4F)CC3)n2)cc1` [Compound 187, 1-(2-fluorophenyl)-4-[3-(4-fluorobenzyl)-1,2,4-thiadiazol-5-yl]piperazine] was run?
The EC50 was 2.81 µg/mL (≈ 7.54 µM).

What about the “%I” value of the same molecule?
The value was 83%.

Which “%I” value does the source give for `Fc1ccc(Cc2nsc(N3CCN(c4cccc(C(F)(F)F)c4)CC3)n2)cc1` [Compound 188, 1-(3-trifluoromethylphenyl)-4-[3-(4-fluorobenzyl)-1,2,4-thiadiazol-5-yl]piperazine] here?
The value was 96%.

With `O=C(c1ccc(Cl)cc1)N1CCCN(c2nc(Cc3ccc(F)cc3)ns2)CC1` [Compound 189, 1-(4-chlorobenzoyl)-4-[3-(4-fluorobenzyl)-1,2,4-thiadiazol-5-yl]-1,4-diazepane] as the molecule, how does the EC50 read?
Its EC50 is 0.17 µg/mL (≈ 0.394 µM).

What about the “%I” value of the same molecule?
The value was 85%.

How did the EC50 turn out when `Cc1ccc(C(=O)N2CCCN(c3nc(Cc4ccc(F)cc4)ns3)CC2)cc1` [Compound 190, 1-(4-methylbenzoyl)-4-[3-(4-fluorobenzyt)-1,2,4-thiadiazol-5-yl]-1,4-diazepane] was run?
Its EC50 is 2.77 µg/mL (≈ 6.75 µM).

What about the “%I” value of the same molecule?
Its value is 87%.

`O=C(c1ccc2c(c1)OCO2)N1CCCN(c2nc(Cc3ccc(F)cc3)ns2)CC1` [Compound 191, 1-(1,3-benzodioxol-5-ylcarbonyl)-4-[3-(4-fluorobenzyl)-1,2,4-thiadiazol-5-yl]-1,4-diazepane] was tested. Which “%I” value did it give?
Its value is 63%.

Which EC50 does the source give for `COc1ccc(S(=O)(=O)N2CCN(c3nc(Cc4cccc(F)c4)ns3)CC2)cc1` [Compound 193, 1-[4-methoxyphenylsulfonyl]-4-[3-(3-fluoro-benzyl)-1,2,4-thiadiazol-5-yl]piperazine] here?
The EC50 was 0.0048 µg/mL (≈ 0.0107 µM).

What about the “%I” value of the same molecule?
The value was 68%.

`COc1ccc(S(=O)(=O)N2CCN(c3nc(Cc4ccccc4F)ns3)CC2)cc1` [Compound 194, 1-[4-methoxyphenylsulfonyl]-4-[3-(2-fluoro-benzyl)-1,2,4-thiadiazol-5-yl]piperazine] was tested. Which EC50 did it give?
The EC50 was 0.0012 µg/mL (≈ 0.00268 µM).

What about the “%I” value of the same molecule?
The value was 102%.
